Assay results taken from PMC7178819, “6,7-Dimethoxy-2-phenethyl-1,2,3,4-tetrahydroisoquinoline amides and corresponding ester isosteres as multidrug resistance reversers” (Journal of Enzyme Inhibition and Medicinal Chemistry, 2020).
Structures can show the parent of a compound that is named as a salt. One block for each compound: values may come before it.

What was measured:
P-gp [1] = target: T1, P-gp (Homo sapiens, UniProt P08183); assay: ATP cell depletion (ATPlite assay) in MDCK-MDR1 cells; assay type: cell-based; details: Yes/No
T1 construct: expressed in transfected cells; host or cells: MDCK-MDR1 (Madin-Darby Canine Kidney cells, gift of Prof. P. Borst, NKI-AVL)
Protocol: The MDCK-MDR1 cells were seeded into 96-well microplate in 100 µL of complete medium at a density 20,000 cells per well. The plate was incubated overnight (O/N) in a humidified atmosphere 5% CO2 at 37 °C. The medium was removed and 100 µL of complete medium either alone or containing different concentrations (ranging from 1 to 100 µM) of test compounds was added. The plate was incubated for 2 h in a humidified 5% CO2 atmosphere at 37 °C. 50 µL of mammalian cell lysis solution was added to all wells and the plate shacked for five minutes in an orbital shaker. 50 µL of substrate solution was added to all wells and the plate shacked for five minutes in an orbital shaker. The plate was dark adapted for ten minutes and the luminescence was measured.
(§1) The interaction potency between the designed compounds and P-gp was evaluated by measuring the transport inhibition of the pro-fluorescent probe Calcein-AM, that is a P-gp substrate, in a cell line overexpressing P-gp (MDCK-MDR1)[47]. The P-gp interacting profile was further investigated with two other assays: the Apparent Permeability (Papp) determination (BA/AB) in Caco-2 cell monolayer[48]^,[49], and the ATP cell depletion in the MDCK-MDR1 cell line[50]. Taking into account the results of the combined tests, an interacting compound can be classified as substrate or inhibitor. Papp determination measures the ratio between two fluxes: from the basolateral to apical compartments (BA, representative of passive diffusion) and from the apical to basolateral compartments (AB, representative of active transport). […] In the same manner, if (BA/AB) >2, the compound should probably be classified as a substrate. […] The selectivity of ligands 1–26 was evaluated by detecting their activity towards the other ABC transporters MRP1 and BCRP, by measuring the inhibition of the efflux of Calcein-AM (i.e., also a MRP1 substrate) in cells overexpressing MRP1 (MDCK-MRP1 cells), and the inhibition of the efflux of the fluorescent probe Hoechst 33342 (i.e. a BCRP substrate) in cells overexpressing BCRP (MDCK-BCRP cells), respectively.

[2] = Stability test in human plasma (LC-MS/MS); assay type: in vitro ADME; details: 1 µM, 37 °C
Protocol: (§2) Each sample was prepared adding 10 µL of working solution 1 to 100 µL of tested matrix (PBS or human plasma) in micro centrifuge tubes. The obtained solutions correspond to 1 µM of analyte.
After the incubation, the samples were added with 300 µL of ISTD solution and centrifuged (room temperature for 5 min at 10,000 rpm). The supernatants were transferred in auto sampler vials and dried under a gentle stream of nitrogen.
(§3) The dried samples were dissolved in 1.0 ml of 10 mM of formic acid in mQ water: acetonitrile 80:20 solution. The obtained sample solutions were analysed by LC-MS/MS methods described in Supplementary material.
(§4) For this purpose, a series of experiments were carried out, adding a known amount of analyte in both phosphate buffer solution (PBS) and in human plasma. The samples were analysed by LC-MS/MS method operating in Multiple Reaction Monitoring (MRM) mode[55].
The analyte concentration (1 µM) used during the stability tests is generally smaller than the corresponding Michaelis–Menten constant (KM); therefore, the enzymatic degradation rate is described by a first-order kinetic. Then, by plotting the natural logarithm of the quantitative data versus the incubation time, a linear function can be used and its slope represents the degradation rate (k).

[3] = Stability test in phosphate buffer solution (PBS); assay type: physicochemical; details: 1 µM, 37 °C, up to 120 min
Protocol: as §2
Each set of samples was incubated in triplicate at four different times, 0, 30, 60 and 120 min at 37 °C. Therefore, the degradation profile of each analyte was represented by a batch of 12 samples (4 incubation times × 3 replicates). After the incubation, the samples were added with 300 µL of ISTD solution and centrifuged (room temperature for 5 min at 10,000 rpm). The supernatants were transferred in auto sampler vials and dried under a gentle stream of nitrogen.
as §3
as §4, with “Due to the presence of ester or amide groups in the structure of compounds 1–26, a study aimed to evaluate their susceptibility to spontaneous or enzymatic hydrolysis, was planned. For” for “For”, “mode[55]. […]” for “mode[55].”

P-gp [4] = target: T1, P-gp; assay: Inhibition of Calcein-AM transport in MDCK-MDR1 cells; assay type: cell-based; details: Calcein-AM, MDCK-MDR1 cells; mean ± SEM of two experiments
Protocol: These experiments were carried out as previously described by Teodori et al. with minor modifications. Each cell line (30 000 cells per well) was seeded into black CulturePlate 96/wells plate with 100 µL medium and allowed to become confluent overnight. 100 µL of test compounds were solubilised in culture medium and added to monolayers, with final concentrations ranging from 1 nM to 100 µM. 96/Wells plate was incubated for 30 min in a humidified atmosphere 5% CO2 at 37 °C. Calcein-AM was added in 100 µL of Phosphate Buffered Saline (PBS) to yield a final concentration of 2.5 µM and plate was incubated for 30 min in a humidified atmosphere 5% CO2 at 37 °C. Each well was washed 3 times with ice cold PBS. Saline buffer was added to each well and the plate was read with Victor3 (PerkinElmer) at excitation and emission wavelengths of 485 and 535 nm, respectively. In these experimental conditions, Calcein cell accumulation in the absence and in the presence of tested compounds was evaluated and fluorescence basal level was estimated with untreated cells. In treated wells the increase of fluorescence with respect to basal level was measured. EC50 values were determined by fitting the fluorescence increase percentage versus log[dose].
The interaction potency between the designed compounds and P-gp was evaluated by measuring the transport inhibition of the pro-fluorescent probe Calcein-AM, that is a P-gp substrate, in a cell line overexpressing P-gp (MDCK-MDR1)[47]. The P-gp interacting profile was further investigated with two other assays: the Apparent Permeability (Papp) determination (BA/AB) in Caco-2 cell monolayer[48]^,[49], and the ATP cell depletion in the MDCK-MDR1 cell line[50]. […] Papp determination measures the ratio between two fluxes: from the basolateral to apical compartments (BA, representative of passive diffusion) and from the apical to basolateral compartments (AB, representative of active transport). […] In the same manner, if (BA/AB) >2, the compound should probably be classified as a substrate.

[5] = Apparent permeability (Papp) determination (BA/AB) in Caco-2 cell monolayer; assay type: in vitro ADME; details: human, Caco-2 monolayer
Protocol: Caco-2 cells were seeded onto a Millicell® assay system (Millipore), where a cell monolayer is set in between a filter cell and a receiver plate, at a density of 10 000 cells/well[46]. The culture medium was replaced every 48 h and the cells kept for 21 days in culture. The Trans Epithelial Electrical Resistance (TEER) of the monolayers was measured daily, before and after the experiment, using an epithelial volt-ohmmeter (Millicell®-ERS). Generally, TEER values greater than 1000 Ω for a 21 days culture, are considered optimal.
After 21 days of Caco-2 cell growth, the medium was removed from filter wells and from the receiver plate, which were filled with fresh HBSS buffer (Invitrogen). This procedure was repeated twice, and the plates were incubated at 37 °C for 30 min. After incubation time, the HBSS buffer was removed and drug solutions and reference compounds were added to the filter well at the concentration of 100 µM, while fresh HBSS was added to the receiver plate. The plates were incubated at 37 °C for 120 min. Afterwards, samples were removed from the apical (filter well) and basolateral (receiver plate) side of the monolayer to measure the permeability.
as §1

MDCK-MDR1 cells = assay: Co-administration assay with doxorubicin (MTT), MDCK-MDR1 cells; assay type: cell-based, canine; details: 10 µM, MDCK cells overexpressing P-gp
Protocol: The co-administration assay with doxorubicin was performed in MDCK-MDR1, HT29, HT29/DX, A549 and A549/DX cells at 48 h. On day 1, 10,000 cells/well were seeded into 96-well plates in a volume of 100 µL of fresh medium. On day 2, the tested drug was added alone to the cells at different concentrations (ranging from 40 nM to 10 µM). On day 3, the medium was removed and the drug at the same concentrations was added alone and in co-administration with 10 µM doxorubicin to the cells. After the established incubation time with the tested drug, MTT (0.5 mg/mL) was added to each well, and after 3 − 4 h incubation at 37 °C, the supernatant was removed. The formazan crystals were solubilised using 100 µL of DMSO/EtOH (1:1), and the absorbance values at 570 and 630 nm were determined on the microplate reader HTX Synergy (Bio-Tek Instruments).

BCRP = target: T2, BCRP (Homo sapiens, UniProt Q9UNQ0); assay: Inhibition of Hoechst 33342 efflux in MDCK-BCRP cells; assay type: cell-based; details: Hoechst 33342, MDCK-BCRP cells; NA: not active
T2 construct: expressed in transfected cells; host or cells: MDCK-BCRP (Madin-Darby Canine Kidney cells, gift of Prof. P. Borst, NKI-AVL)
T2 sequence (Q9UNQ0 1-655): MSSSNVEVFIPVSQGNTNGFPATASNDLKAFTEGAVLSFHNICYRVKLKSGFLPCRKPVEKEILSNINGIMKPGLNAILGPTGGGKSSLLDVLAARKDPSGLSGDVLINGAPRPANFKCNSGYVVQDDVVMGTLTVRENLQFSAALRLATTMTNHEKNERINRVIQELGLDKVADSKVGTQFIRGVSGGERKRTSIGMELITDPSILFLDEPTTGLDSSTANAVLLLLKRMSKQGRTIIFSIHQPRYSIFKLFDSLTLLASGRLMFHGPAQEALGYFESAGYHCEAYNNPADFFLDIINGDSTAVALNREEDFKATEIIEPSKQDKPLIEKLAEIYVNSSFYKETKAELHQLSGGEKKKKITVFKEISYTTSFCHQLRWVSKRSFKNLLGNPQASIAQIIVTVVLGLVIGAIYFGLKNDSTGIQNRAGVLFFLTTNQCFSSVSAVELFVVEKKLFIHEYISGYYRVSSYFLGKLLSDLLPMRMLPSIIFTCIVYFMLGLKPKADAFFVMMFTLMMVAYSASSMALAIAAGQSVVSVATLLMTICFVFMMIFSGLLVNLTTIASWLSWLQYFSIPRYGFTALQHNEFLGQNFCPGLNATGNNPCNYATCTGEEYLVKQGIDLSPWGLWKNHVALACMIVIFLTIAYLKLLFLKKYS
Protocol: These experiments were carried out as described by Teodori et al.[34]. Each cell line (30 000 cells per well) was seeded into black CulturePlate 96/wells plate with 100 µL medium and allowed to become confluent overnight. 100 µL of test compounds were solubilised in culture medium and added to monolayers, with final concentrations ranging from 1 to 100 µM. 96/Wells plate was incubated for 30 min in a humidified atmosphere 5% CO2 at 37 °C. Hoechst 33342 was added in 100 µl of phosphate-buffered saline (PBS) to yield a final concentration of 8 µM and plate was incubated for 30 min in a humidified atmosphere 5% CO2 at 37 °C. The supernatants were drained, and the cells were fixed for 20 min under light protection using 100 µL per well of a 4% PFA solution. Each well was washed three times with ice cold PBS. Saline buffer was added to each well and the plate was read with Victor3 (PerkinElmer) at excitation and emission wavelengths of 340/35 nm and 485/20 nm, respectively. In these experimental conditions, Hoechst 33342 accumulation in the absence and in the presence of tested compounds was evaluated and fluorescence basal level was estimated with untreated cells. In treated wells, the increase of fluorescence with respect to basal level was measured. EC50 values were determined by fitting the fluorescence increase percentage versus log[dose]. […]

T1 sequence (P08183 whole entry): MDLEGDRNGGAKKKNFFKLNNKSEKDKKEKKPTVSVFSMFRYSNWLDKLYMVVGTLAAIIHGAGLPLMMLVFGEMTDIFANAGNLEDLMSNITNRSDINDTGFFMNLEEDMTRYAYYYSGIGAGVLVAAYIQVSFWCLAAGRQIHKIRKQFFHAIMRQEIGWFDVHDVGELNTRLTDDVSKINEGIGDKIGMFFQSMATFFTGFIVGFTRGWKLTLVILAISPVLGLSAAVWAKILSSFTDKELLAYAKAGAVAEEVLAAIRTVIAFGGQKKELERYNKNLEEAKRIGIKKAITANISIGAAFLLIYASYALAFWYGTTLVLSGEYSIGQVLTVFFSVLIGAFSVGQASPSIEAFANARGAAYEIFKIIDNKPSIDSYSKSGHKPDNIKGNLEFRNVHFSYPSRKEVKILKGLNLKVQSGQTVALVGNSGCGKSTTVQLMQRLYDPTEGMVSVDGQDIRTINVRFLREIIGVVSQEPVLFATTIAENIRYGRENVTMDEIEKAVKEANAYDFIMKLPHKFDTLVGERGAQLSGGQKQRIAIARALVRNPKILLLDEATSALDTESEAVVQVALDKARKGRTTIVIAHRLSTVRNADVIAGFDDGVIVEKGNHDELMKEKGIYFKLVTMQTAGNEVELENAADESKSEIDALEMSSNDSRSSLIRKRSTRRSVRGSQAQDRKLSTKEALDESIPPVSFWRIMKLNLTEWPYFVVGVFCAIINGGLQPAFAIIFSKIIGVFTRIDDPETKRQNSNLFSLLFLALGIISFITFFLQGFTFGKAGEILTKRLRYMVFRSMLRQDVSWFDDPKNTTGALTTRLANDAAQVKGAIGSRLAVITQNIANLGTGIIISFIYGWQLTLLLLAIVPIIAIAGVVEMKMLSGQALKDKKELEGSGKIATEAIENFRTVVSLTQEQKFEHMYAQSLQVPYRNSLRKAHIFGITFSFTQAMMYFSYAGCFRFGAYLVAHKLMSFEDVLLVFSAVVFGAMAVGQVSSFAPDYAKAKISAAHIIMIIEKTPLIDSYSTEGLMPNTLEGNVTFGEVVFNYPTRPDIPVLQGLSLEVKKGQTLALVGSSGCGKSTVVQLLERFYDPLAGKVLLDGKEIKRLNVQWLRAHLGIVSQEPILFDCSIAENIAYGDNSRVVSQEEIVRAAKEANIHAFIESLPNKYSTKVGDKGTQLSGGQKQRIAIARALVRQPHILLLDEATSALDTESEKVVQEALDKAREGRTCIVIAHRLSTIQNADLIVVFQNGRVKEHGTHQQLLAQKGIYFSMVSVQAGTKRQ

SMILES: COc1cncc(C(=O)Nc2ccc(CCN3CCc4cc(OC)c(OC)cc4C3)cc2)n1 [Compound 12, N-(4–(2-(6,7-dimethoxy-3,4-dihydroisoquinolin-2(1H)-yl)ethyl)phenyl)-6-methoxypyrazine-2-carboxamide]
ATP cell depletion (P-gp [1]): No | stability in human plasma ([2]; up to 120 min): stable over 120 min | half-life at 1 µM ([2]; human, human plasma): ≥ 240 min | stability in PBS [3]: unmodified | EC50 (P-gp [4]): 870 ± 170 nM | efflux ratio at 120 min, 100 µM [5]: 6

SMILES: COc1cccc2c1C(=O)c1c(O)c3c(c(O)c1C2=O)C[C@@](O)(C(=O)CO)C[C@@H]3O[C@H]1C[C@H](N)[C@H](O)[C@H](C)O1 [doxorubicin, reference compound]
cytotoxicity of doxorubicin alone (MDCK-MDR1 cells): did not show cytotoxicity

SMILES: COc1cc2c(cc1OC)CN(CCc1ccc(NC(=O)c3cc(OC)c(OC)cc3NC(=O)c3cnc4ccccc4c3)cc1)CC2 [tariquidar, reference compound]
EC50 (BCRP): 10 ± 5 nM | ATP cell depletion (P-gp [1]): Yes^f | EC50 (P-gp [4]): 44 ± 1 nM | efflux ratio at 120 min, 100 µM [5]: > 20

The remaining lines, values ahead:

melting point: 212 to 214 °C
SMILES: COc1cc2c(cc1OC)CN(CCc1ccc(NC(=O)c3c(OC)cccc3OC)cc1)CC2 (as salt: hydrochloride) [Compound 4, N-(4–(2-(6,7-dimethoxy-3,4-dihydroisoquinolin-2(1H)-yl)ethyl)phenyl)-2,6-dimethoxybenzamide]

melting point: 239 to 241 °C
SMILES: COc1cc2c(cc1OC)CN(CCc1ccc(NC(=O)c3c(OC)ccc4ccccc34)cc1)CC2 (as salt: hydrochloride) [Compound 7, N-(4–(2-(6,7-dimethoxy-3,4-dihydroisoquinolin-2(1H)-yl)ethyl)phenyl)-2-methoxy-1-naphthamide]

melting point: 245 to 248 °C
SMILES: COc1cc2c(cc1OC)CN(CCc1ccc(NC(=O)c3c(OC)c(OC)cc4ccccc34)cc1)CC2 (as salt: hydrochloride) [Compound 8, N-(4–(2-(6,7-dimethoxy-3,4-dihydroisoquinolin-2(1H)-yl)ethyl)phenyl)-2,3-dimethoxy-1-naphthamide]

melting point: 228 to 230 °C
SMILES: COc1ccc2nccc(C(=O)Nc3ccc(CCN4CCc5cc(OC)c(OC)cc5C4)cc3)c2c1 (as salt: hydrochloride) [Compound 13, N-(4–(2-(6,7-dimethoxy-3,4-dihydroisoquinolin-2(1H)-yl)ethyl)phenyl)-6-methoxyquinoline-4-carboxamide]
